Reference: article PMC11432624
In brackets after ≈: the same amount, converted by molar mass. Several values for one entry are separate records, joined by “and”; a condition that tells them apart may be missing. Identical values can stand only once. Like-named read-outs stand apart in the source and are kept apart here. Starred links: 1 amine or outer side, 2 acyl side, 3 side chain; linkers in the order of their positions; H or OH if unused. Positions of bridges follow the written chain, without caps; N, C: chain ends. Non-standard residues stand in square brackets, D forms with d. Residues, ends and D or L forms follow the SMILES beside them. No end group written: not given here. *: point of attachment. hTyr(3S-OH,4S-OH,3'-OSO3H) = N[C@H](C(=O)O)[C@H](O)[C@@H](O)c1ccc(O)c(OS(=O)(=O)O)c1; pTerphenylCO(4''-OnC5H11) = CCCCCOc1ccc(-c2ccc(-c3ccc(C(=O)*)cc3)cc2)cc1; Orn(4R-OH,5R-OH) = O=C([C@H](C[C@@H](O)[C@@H](O)N[*:3])N[*:1])[*:2]; hTyr(3S-OH,4S-OH) = N[C@H](C(=O)O)[C@H](O)[C@@H](O)c1ccc(O)cc1; Pro(3S-OH,4S-Me) = C[C@H]1CN[C@H](C(=O)O)[C@H]1O; X1 = CCCCCOc1ccc(-c2cc(-c3ccc(C(=O)*)cc3)no2)cc1; Gln(3R-OH) = NC(=O)C[C@@H](O)[C@H](N)C(=O)O; Hyp = O=C(O)[C@@H]1C[C@@H](O)CN1

Tests used:
C. albicans ATCC 18804 = experiment: microbe, parasite or virus in culture; type: cell-based
Description: (§1) Antifungal activity of the recombinant peptides was studied against collection strains of Candida albicans ATCC 18804 and ATCC 10231, clinical isolates of C. albicans v47a3 and 9.1, clinical isolates of C. krusei 225/2, C. glabrata 252/2 and C. tropicalis v13a4/2 isolated from the patients with human immunodeficiency virus (HIV) infection and provided by the G.N. Gabrichevsky Research Institute for Epidemiology and Microbiology (Moscow, Russia). C. albicans ATCC 18804 and v47a3, C. krusei 225/2, C. glabrata 252/2 and C. tropicalis v13a4/2 were characterized as sensitive to antimycotics yeast strains, while C. albicans ATCC 10231 and 9.1 were resistant to azoles. C. albicans ATCC 10231 was also resistant to anidulafungin (Supplementary Materials, Tables S4 and S6).
(§2) The study was carried out in Sabouraud broth using 96-well microplates. Yeast cells at a concentration of 4 × 10^4 cells/mL were mixed with equal volumes of two-fold dilutions of peptides in water, starting with a maximum concentration of 32 μM. Control wells without peptides were also used. Microplates were incubated at 30 °C for 24 h after that yeast growth was estimated using an inverted microscope and by measuring the optical density at 630 nm. MIC was defined as minimal peptide concentration, inhibiting fungal growth by 100%. To determine whether the peptides act fungicidal or fungistatic, the contents of the wells of the plate with peptide concentrations equal to MIC and higher were sown on Sabouraud agar and incubated at 37 °C for 24 h. MFC was defined as minimal peptide concentration, ensuring the death of all fungal cells. FI was defined as the fungicide index, equal to the MFC/MIC ratio and indicating the severity of the fungicidal action of the peptide. […] Either 150 mM NaCl, 1.25 mM MgCl2, 1.25 mM CaCl2 or 10% fetal bovine serum (FBS) was added to Sabouraud broth to estimate the influence of various salts and serum on the antifungal activity of peptides tested.

Candida albicans v47a3 = experiment: Sensitivity of clinical isolates to conventional antimycotics (broth dilution MIC); settings: V47A3, read-out: MICs
Candida albicans 9.1 = experiment: as above; settings: Candida albicans, 9.1, read-out: MICs
C. krusei 225/2 = type: cell-based; settings: 225/2, 24 h
Description: as §1, §2

C. tropicalis v13a4/2 = type: cell-based; settings: v13a4/2, 24 h
Description: as §1, §2

C. albicans v47a = type: cell-based; settings: 24 h
Description: as §1, §2

C. albicans 9.1 = type: cell-based; settings: 9.1, 24 h
Description: as §1, §2

C. glabrata 252/2 = type: cell-based; settings: 252/2, 24 h
Description: as §1, §2

C. albicans ATCC 10231 = type: cell-based; settings: ATCC 10231, 24 h
Description: as §1, §2

[1] = not given; remark: listed apart in the source
human red blood cells = test system: human red blood cells; design: method as in PMID 36557160; settings: cited from earlier work
pepsin = pepsin (Sus scrofa, UniProt P00791); settings: 50 ng pepsin per 1 μg peptide, 0.05 M HCl pH~1.3, peptide 0.5 mg/mL, 37 °C, after 2 h, SDS-PAGE densitometry
Sequence of pepsin (P00791 60-385): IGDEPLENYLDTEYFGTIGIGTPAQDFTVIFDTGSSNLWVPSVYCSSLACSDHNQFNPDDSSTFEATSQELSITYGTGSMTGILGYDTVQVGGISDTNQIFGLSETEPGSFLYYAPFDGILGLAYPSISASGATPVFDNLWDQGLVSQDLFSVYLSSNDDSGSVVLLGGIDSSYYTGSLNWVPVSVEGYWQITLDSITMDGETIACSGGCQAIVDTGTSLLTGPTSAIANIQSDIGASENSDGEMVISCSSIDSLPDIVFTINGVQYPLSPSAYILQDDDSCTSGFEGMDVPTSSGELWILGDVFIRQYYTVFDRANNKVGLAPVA
Description: Gastric digestion was performed using 50 ng of pepsin per 1 μg of acidocin A in 0.05 M HCl (pH~1.3). […] The concentration of the peptide was 0.5 mg/mL in both cases. The reaction mixtures were incubated at 37 °C for 2 h and the aliquots were taken at 5 min, 30 min and 2 h after the start of incubation, immediately mixed with the sample buffer containing 4% SDS, and heated for 5 min at 80 °C to ensure protease inactivation. The degree of proteolysis was monitored by Laemmli SDS-PAGE in 18%T 3%C polyacrylamide gels by applying a volume of the mixture containing 1.5 μg of the peptide per lane.

C[C@@H]1[C@H](O)[C@@H](C)/C=C/C=C/C=C/C=C/C=C/C=C/C=C/[C@H](O[C@@H]2O[C@H](C)[C@@H](O)[C@H](N)[C@@H]2O)C[C@@H]2O[C@](O)(C[C@@H](O)C[C@@H](O)[C@H](O)CC[C@@H](O)C[C@@H](O)CC(=O)O[C@H]1C)C[C@H](O)[C@H]2C(=O)O [Amphotericin B, reference compound]
concentration with fungicidal effect (2 × MIC) (C. albicans ATCC 18804; C. albicans ATCC 18804, antifungal activity assay): 1 µg/mL | MIC (C. albicans ATCC 18804; Candida albicans, ATCC18804, C. albicans ATCC 18804, wells previously blocked with 0.1% BSA, read-out: MIC): 0.5 µg/mL | MIC (Candida albicans v47a3): 0.5 µg/mL (≈ 0.541 µM) | MIC (Candida albicans 9.1): 1 µg/mL (≈ 1.08 µM)

CCCCCOc1ccc(-c2ccc(-c3ccc(C(=O)N[C@H]4C[C@@H](O)[C@@H](O)NC(=O)[C@@H]5[C@@H](O)[C@@H](C)CN5C(=O)[C@H]([C@@H](C)O)NC(=O)[C@H]([C@H](O)[C@@H](O)c5ccc(O)cc5)NC(=O)[C@@H]5C[C@@H](O)CN5C(=O)[C@H]([C@@H](C)O)NC4=O)cc3)cc2)cc1 [Anidulafungin] ({pTerphenylCO(4''-OnC5H11)}-[Orn(4R-OH,5R-OH)]T[Hyp][hTyr(3S-OH,4S-OH)]T[Pro(3S-OH,4S-Me)]; lactam 1-C)
MIC (Candida albicans v47a3): 0.03 µg/mL (≈ 0.0263 µM) | MIC (Candida albicans 9.1): 0.06 µg/mL (≈ 0.0526 µM)

CC[C@H](C)C[C@H](C)CCCCCCCCC(=O)N[C@H]1C[C@@H](O)[C@@H](NCCN)NC(=O)[C@@H]2[C@@H](O)CCN2C(=O)[C@H]([C@H](O)CCN)NC(=O)[C@H]([C@H](O)[C@@H](O)c2ccc(O)cc2)NC(=O)[C@@H]2C[C@@H](O)CN2C(=O)[C@H]([C@@H](C)O)NC1=O [Caspofungin]
MIC (Candida albicans v47a3): 0.06 µg/mL (≈ 0.0549 µM) | MIC (Candida albicans 9.1): 0.12 µg/mL (≈ 0.11 µM)

OC(Cn1cncn1)(Cn1cncn1)c1ccc(F)cc1F [Fluconazole]
MIC (Candida albicans v47a3): 8 µg/mL (≈ 26.1 µM) | MIC (Candida albicans 9.1): 256 µg/mL (≈ 836 µM)

Nc1[nH]c(=O)ncc1F [Flucytosine]
MIC (Candida albicans v47a3): 0.06 µg/mL (≈ 0.465 µM) | MIC (Candida albicans 9.1): 0.06 µg/mL (≈ 0.465 µM)

CCC(C)n1ncn(-c2ccc(N3CCN(c4ccc(OCC5COC(Cn6cncn6)(c6ccc(Cl)cc6Cl)O5)cc4)CC3)cc2)c1=O (stereo not drawn) [Itraconazole]
MIC (Candida albicans v47a3): 0.12 µg/mL (≈ 0.17 µM) | MIC (Candida albicans 9.1): 16 µg/mL (≈ 22.7 µM)

CCCCCOc1ccc(-c2cc(-c3ccc(C(=O)N[C@H]4C[C@@H](O)[C@@H](O)NC(=O)[C@@H]5[C@@H](O)[C@@H](C)CN5C(=O)[C@H]([C@H](O)CC(N)=O)NC(=O)[C@H]([C@H](O)[C@@H](O)c5ccc(O)c(OS(=O)(=O)O)c5)NC(=O)[C@@H]5C[C@@H](O)CN5C(=O)[C@H]([C@@H](C)O)NC4=O)cc3)no2)cc1 [Micafungin] (X1-[Orn(4R-OH,5R-OH)]T[Hyp][hTyr(3S-OH,4S-OH,3'-OSO3H)][Gln(3R-OH)][Pro(3S-OH,4S-Me)]; lactam 1-C)
MIC (Candida albicans v47a3): 0.008 µg/mL (≈ 0.0063 µM) | MIC (Candida albicans 9.1): 0.015 µg/mL (≈ 0.0118 µM)

CC[C@@H]([C@H](C)O)n1ncn(-c2ccc(N3CCN(c4ccc(OC[C@@H]5CO[C@@](Cn6cncn6)(c6ccc(F)cc6F)C5)cc4)CC3)cc2)c1=O [Posaconazole]
MIC (Candida albicans v47a3): 0.12 µg/mL (≈ 0.171 µM) | MIC (Candida albicans 9.1): 8 µg/mL (≈ 11.4 µM)

C[C@@H](c1ncncc1F)[C@](O)(Cn1cncn1)c1ccc(F)cc1F [Voriconazole]
MIC (Candida albicans v47a3): 0.5 µg/mL (≈ 1.43 µM) | MIC (Candida albicans 9.1): 8 µg/mL (≈ 22.9 µM)

KTHYPTNAWKSLWKGFWESLRYTDGF [Acidocin 8912]
MFC (C. albicans ATCC 18804; ATCC 18804, 24 h): >32 µM | MIC (C. albicans ATCC 18804; ATCC 18804, 24 h): 32 µM | MFC (C. krusei 225/2): 32 µM | MIC (C. krusei 225/2): 32 µM | MFC (C. tropicalis v13a4/2): 16 µM | MIC (C. tropicalis v13a4/2): 16 µM | MFC (C. albicans v47a): >32 µM | MIC (C. albicans v47a): 16 µM | MFC (C. albicans 9.1): 32 µM | MIC (C. albicans 9.1): 16 µM | MFC (C. glabrata 252/2): 16 µM | MIC (C. glabrata 252/2): 16 µM | MFC (C. albicans ATCC 10231): 32 µM | MIC (C. albicans ATCC 10231): 16 µM | Random: 28.9% and 31.2% and 20.3% | β-Turn [1]: 23.9% and 17% and 22.4%

KTYYGTNGVHCTKKSLWGKVRLKNVIPGTLCRKQSLPIKQDLKILLGWATGAFGKTFH (disulfide 11-31) [Acidocin A]
MFC (C. albicans ATCC 18804; ATCC 18804, 24 h): 8 µM | MIC (C. albicans ATCC 18804; ATCC 18804, 24 h): 4 µM | MFC (C. krusei 225/2): 8 µM | MIC (C. krusei 225/2): 8 µM | MFC (C. tropicalis v13a4/2): 4 µM | MIC (C. tropicalis v13a4/2): 4 µM | MFC (C. albicans v47a): 4 µM | MIC (C. albicans v47a): 4 µM | MFC (C. albicans 9.1): 16 µM | MIC (C. albicans 9.1): 4 µM | MFC (C. glabrata 252/2): 4 µM | MIC (C. glabrata 252/2): 4 µM | MFC (C. albicans ATCC 10231): 16 µM | MIC (C. albicans ATCC 10231): 8 µM | Random (cited from earlier work): 28.6% and 37.9% and 28.8% | β-Turn ([1]; cited from earlier work): 20.3% and 19.2% and 22.6% | HC10 (human red blood cells): > 128 µM | resistance to pepsin (amount remaining) (pepsin): more than half of the initial amount was retained
